The OligoGym collection
HELM strings list units from the 5' end as sugar, base in round brackets, then linkage (d deoxyribose, r ribose, m 2'-O-methyl, p phosphodiester). Strings are as the collection lists them; they lack the last nucleoside at the 3' end of the tested compound. [moe] = 2'-O-(2-methoxyethyl) (MOE); [sp] = phosphorothioate linkage; [m5C] = 5-methylcytosine

Target: GFAP
Test: mouse, dose not given
Conditions: ASO

Substance	3 h FOB score [score 0-7]
RNA1{[moe](G)[sp].[moe](T)p.[moe]([m5C])p.[moe](A)p.[moe]([m5C])p.d(A)[sp].d(T)[sp].d(T)[sp].d([m5C])[sp].d(A)[sp].d([m5C])[sp].d(T)[sp].d(A)[sp].d(A)[sp].d(T)[sp].[moe](A)p.[moe](T)p.[moe](T)[sp].[moe](T)}$$$$ (last 3' nucleoside missing)	0
RNA1{[moe](T)[sp].[moe]([m5C])p.[moe](A)p.[moe](G)p.d([m5C])[sp].d([m5C])[sp].d(T)[sp].d(G)[sp].d(G)[sp].d(T)[sp].d(T)[sp].d(A)[sp].d(G)[sp].d([m5C])[sp].[moe]([m5C])p.[moe](T)p.[moe](T)p.[moe](T)[sp].[moe]([m5C])}$$$$ (last 3' nucleoside missing)	4
RNA1{[moe](T)[sp].[moe]([m5C])p.[moe](A)p.[moe](G)p.[moe]([m5C])p.[moe]([m5C])p.d(T)[sp].d(G)[sp].d(G)[sp].d(T)[sp].d(T)[sp].d(A)[sp].d(G)[sp].d([m5C])[sp].d([m5C])[sp].d(T)[sp].[moe](T)p.[moe](T)[sp].[moe]([m5C])}$$$$ (last 3' nucleoside missing)	4
RNA1{[moe](G)[sp].[moe](A)p.[moe](G)p.[moe](T)p.[moe](T)[sp].d(T)[sp].d([m5C])[sp].d(T)[sp].d(T)[sp].d(G)[sp].d(T)[sp].d(T)[sp].d(A)[sp].d(G)[sp].d(T)[sp].[moe](T)p.[moe](G)p.[moe](G)[sp].[moe](A)}$$$$ (last 3' nucleoside missing)	7
RNA1{[moe]([m5C])[sp].[moe]([m5C])p.[moe](A)p.[moe](G)p.[moe](T)[sp].d(G)[sp].d(T)[sp].d([m5C])[sp].d(T)[sp].d(T)[sp].d([m5C])[sp].d(A)[sp].d([m5C])[sp].d(T)[sp].d(T)[sp].[moe](T)p.[moe](G)p.[moe]([m5C])[sp].[moe](T)}$$$$ (last 3' nucleoside missing)	0
RNA1{[moe](A)[sp].[moe](A)p.[moe](G)p.[moe](G)p.[moe]([m5C])p.[moe](A)p.d([m5C])[sp].d(A)[sp].d(G)[sp].d(T)[sp].d(T)[sp].d([m5C])[sp].d([m5C])[sp].d([m5C])[sp].d(A)[sp].d(G)[sp].[moe](A)p.[moe](T)[sp].[moe](A)}$$$$ (last 3' nucleoside missing)	2
RNA1{[moe](G)[sp].[moe](T)p.[moe]([m5C])p.[moe](A)p.[moe]([m5C])[sp].d(A)[sp].d(T)[sp].d(T)[sp].d([m5C])[sp].d(A)[sp].d([m5C])[sp].d(T)[sp].d(A)[sp].[moe](A)p.[moe](T)p.[moe](A)[sp].[moe](T)}$$$$ (last 3' nucleoside missing)	0
RNA1{[moe](T)[sp].[moe](G)p.[moe](G)p.[moe](T)p.d(G)[sp].d([m5C])[sp].d(T)[sp].d(T)[sp].d(T)[sp].d(T)[sp].d(G)[sp].d([m5C])[sp].d([m5C])[sp].d([m5C])[sp].[moe]([m5C])p.[moe]([m5C])p.[moe](T)p.[moe](G)[sp].[moe](T)}$$$$ (last 3' nucleoside missing)	1
RNA1{[moe](G)[sp].[moe](T)p.[moe](G)p.[moe](T)p.[moe](A)p.d(T)[sp].d(T)[sp].d(A)[sp].d(G)[sp].d(G)[sp].d(A)[sp].d(T)[sp].d([m5C])[sp].d([m5C])[sp].d([m5C])[sp].[moe](A)p.[moe](T)p.[moe]([m5C])[sp].[moe](T)}$$$$ (last 3' nucleoside missing)	2
RNA1{[moe](A)[sp].[moe](T)p.[moe](T)p.[moe](T)p.[moe](G)[sp].d(T)[sp].d([m5C])[sp].d(T)[sp].d(T)[sp].d(T)[sp].d(A)[sp].d(T)[sp].d(T)[sp].[moe](T)p.[moe](T)p.[moe](T)[sp].[moe]([m5C])}$$$$ (last 3' nucleoside missing)	0
